Data as given in ChEMBL document CHEMBL5252551, “A hit deconstruction approach for the discovery of fetal hemoglobin inducers” (Bioorg Med Chem Lett, 2018).
Values after ≈ are worked out from the molar mass of the structure shown. Active and inactive are the calls of the source. No cut-off for these calls is given here.

Legend:
[1] = Induction of HbF production in human erythroid progenitor cells measured after 3 days by ELISA assay; assay type: functional, cell-based; settings: Erythroid progenitor cell, 72 h
[2] = tested on: Erythroid progenitor cell; assay: (§1) Induction of HbF production in human erythroid progenitor cells at upto 33 uM measured after 3 days by ELISA assay; assay type: functional, cell-based; settings: time 3.0 day
[3] = Solubility of the compound in FaSSIF; assay type: ADME
[4] = Half life in Sprague-Dawley rat at 5 mg/kg,po; assay type: ADME, organism-based; settings: in vivo
[5] = Cmax in Sprague-Dawley rat at 5 mg/kg,po; assay type: ADME, organism-based; set-up: dose 5 mg/kg, route po; settings: in vivo
[6] = Dose normalized AUC in Sprague-Dawley rat at 28 mg/kg,po; assay type: ADME, organism-based; settings: in vivo
[7] = Cmax in Sprague-Dawley rat at 28 mg/kg,po; assay type: ADME, organism-based; set-up: dose 28 mg/kg, route po; settings: in vivo
[8] = Half life in Sprague-Dawley rat at 28 mg/kg,po; assay type: ADME, organism-based; settings: in vivo
[9] = Oral bioavailability in Sprague-Dawley rat at 5 mg/kg; assay type: ADME, organism-based; settings: in vivo
[10] = Oral bioavailability in Sprague-Dawley rat at 28 mg/kg; assay type: ADME, organism-based; settings: in vivo
[11] = Dose normalized AUC in Sprague-Dawley rat at 5 mg/kg,po; assay type: ADME, organism-based; settings: in vivo
[12] = Dose normalized AUC in Sprague-Dawley rat at 10 mg/kg,po; assay type: ADME, organism-based; settings: in vivo
[13] = Oral bioavailability in Sprague-Dawley rat at 10 mg/kg; assay type: ADME, organism-based; settings: in vivo
[14] = Cmax in Sprague-Dawley rat at 10 mg/kg,po; assay type: ADME, organism-based; set-up: dose 10 mg/kg, route po; settings: in vivo
[15] = Half life in Sprague-Dawley rat at 10 mg/kg,po; assay type: ADME, organism-based; settings: in vivo
[16] = Solubility of the compound in simulated intestinal fluid measured after 4 hrs; assay type: ADME
[17] = Genotoxicity in Salmonella typhimurium in presence of S9 fraction by Ames test; assay type: toxicity, subcellular; settings: salmonella enterica subsp. enterica serovar typhimurium
[18] = Genotoxicity in Salmonella typhimurium in absence of S9 fraction by Ames test; assay type: toxicity; settings: salmonella enterica subsp. enterica serovar typhimurium
[19] = as §1; assay type: functional, cell-based; settings: Erythroid progenitor cell, 72 h
[20] = Dose normalized AUC in Sprague-Dawley rat at 100 mg/kg,po; assay type: ADME, organism-based; settings: in vivo
[21] = Cmax in Sprague-Dawley rat at 100 mg/kg,po; assay type: ADME, organism-based; set-up: dose 100 mg/kg, route po; settings: in vivo
[22] = Half life in Sprague-Dawley rat at 100 mg/kg,po; assay type: ADME, organism-based; settings: in vivo
[23] = Oral bioavailability in Sprague-Dawley rat at 100 mg/kg; assay type: ADME, organism-based; settings: in vivo
[24] = Dose normalized AUC in Sprague-Dawley rat at 1 mg/kg, iv; assay type: ADME, organism-based; settings: in vivo
[25] = Cmax in Sprague-Dawley rat at 1 mg/kg,iv; assay type: ADME, organism-based; set-up: dose 1 mg/kg, route iv; settings: in vivo
[26] = Volume of distribution at steady state in Sprague-Dawley rat at 5 mg/kg,po or 1 mg/kg,iv; assay type: ADME, organism-based; settings: in vivo
[27] = Half life in Sprague-Dawley rat at 1 mg/kg, iv; assay type: ADME, organism-based; settings: in vivo

O=C(CNC(=O)c1ccc2c(c1)B(O)OC2)NCc1ccccc1
EC50 ([1]; read-out: pEC50 (converted)): > 31600 nM

Cc1ccc(NC(=O)c2cccn(Cc3ccccc3)c2=O)cc1B(O)O
EC50 ([1]; read-out: pEC50 (converted)): > 31600 nM | Activity [2]: inactive

NC(=O)CNC(=O)c1ccc2c(c1)B(O)OC2
EC50 ([1]; read-out: pEC50 (converted)): > 31600 nM

NC(=O)c1ccc2c(c1)B(O)OC2
EC50 ([1]; read-out: pEC50 (converted)): > 31600 nM

O=C(Cc1ccc2c(c1)B(O)OC2)NS(=O)(=O)C1CCCC1
solubility [3]: 880 µg/mL (≈ 2.72 mM) | EC50 ([1]; read-out: pEC50 (converted)): 15.1 nM

CC(C(=O)NS(=O)(=O)C1CC1)c1ccc2c(c1)B(O)OC2 (racemic)
solubility [3]: > 1000 µg/mL | EC50 ([1]; read-out: pEC50 (converted)): 26.9 nM

CC(C(=O)O)c1ccc2c(c1)B(O)OC2 (racemic)
solubility [3]: > 1000 µg/mL | EC50 ([1]; read-out: pEC50 (converted)): 47.9 nM

O=C(O)CNC(=O)c1ccc2c(c1)B(O)OC2
EC50 ([1]; read-out: pEC50 (converted)): > 31600 nM

O=C(Cc1ccc2c(c1)B(O)OC2)NS(=O)(=O)c1ccccc1
half-life [4]: 7.29 h | Cmax [5]: 1290 ng/mL | AUC/dose [6]: 2120 kg·ng·h/mL/mg | solubility [3]: 900 µg/mL (≈ 2.72 mM) | Cmax [7]: 53000 ng/mL | half-life [8]: 3.88 h | EC50 ([1]; read-out: pEC50 (converted)): 64.6 nM | bioavailability [9]: 28% | bioavailability [10]: > 100% | AUC/dose [11]: 560 kg·ng·h/mL/mg

CC(C)(c1ccc2c(c1)B(O)OC2)c1nnn[nH]1
AUC/dose [12]: 1049 kg·ng·h/mL/mg | half-life [4]: 1.05 h | Cmax [5]: 1180 ng/mL | solubility [3]: 930 µg/mL (≈ 3.81 mM) | bioavailability [13]: > 100% | Cmax [14]: 3880 ng/mL | EC50 ([1]; read-out: pEC50 (converted)): 26.3 nM | half-life [15]: 1.53 h | bioavailability [9]: 68% | AUC/dose [11]: 612 kg·ng·h/mL/mg

O=C(Nc1cccn(Cc2ccccc2)c1=O)c1ccc2c(c1)B(O)OC2
solubility [3]: 3 µg/mL (≈ 0.00833 mM) | solubility at 4 h [16]: 3 µg/mL (≈ 0.00833 mM) | Activity [17]: Non-Toxic | EC50 ([1]; read-out: pEC50 (converted)): 1020 nM | Activity [18]: Non-Toxic

O=C(Nc1cccn(Cc2ccccc2)c1=O)c1ccc2c(c1F)B(O)OC2
solubility [3]: 4 µg/mL (≈ 0.0106 mM) | EC50 ([1]; read-out: pEC50 (converted)): 91.2 nM

NCc1ccc(S(=O)(=O)NC(=O)CCc2ccc3c(c2)B(O)OC3)cc1
EC50 [19]: 6030 nM

O=C(O)c1cccn1-c1ccc2c(c1)B(O)OC2
solubility [3]: > 1000 µg/mL | EC50 ([1]; read-out: pEC50 (converted)): 11500 nM

CC(C)(C(=O)O)c1ccc2c(c1)B(O)OC2
solubility [3]: > 1000 µg/mL | EC50 ([1]; read-out: pEC50 (converted)): 115 nM

O=C(Nc1cccc(B(O)O)c1)c1cccn(Cc2ccccc2)c1=O
EC50 ([1]; read-out: pEC50 (converted)): > 31600 nM | Activity [2]: inactive

O=C(CCc1ccc2c(c1)B(O)OC2)NS(=O)(=O)c1ccccc1
solubility [3]: > 1000 µg/mL | EC50 ([1]; read-out: pEC50 (converted)): 832 nM

O=C(Nc1cccn(Cc2ccccc2)c1=O)c1cc(F)c2c(c1)B(O)OC2
solubility [3]: 8 µg/mL (≈ 0.0212 mM) | EC50 ([1]; read-out: pEC50 (converted)): 2140 nM

CCC(C(=O)O)c1ccc2c(c1)B(O)OC2 (racemic)
solubility [3]: 850 µg/mL (≈ 3.86 mM) | EC50 ([1]; read-out: pEC50 (converted)): 50.1 nM

OB1OCc2ccc(Oc3nnn[nH]3)cc21
solubility [3]: > 1000 µg/mL | EC50 ([1]; read-out: pEC50 (converted)): 129 nM

O=C(Nc1cccn(Cc2ccccc2)c1=O)c1cc2c(cc1F)COB2O
EC50 ([1]; read-out: pEC50 (converted)): > 31600 nM

CC(C)C(C(=O)O)c1ccc2c(c1)B(O)OC2 (racemic)
solubility [3]: > 1000 µg/mL | EC50 ([1]; read-out: pEC50 (converted)): 646 nM

OB1OCc2ccc(Oc3nnn[nH]3)c(F)c21
solubility [3]: > 1000 µg/mL | EC50 ([1]; read-out: pEC50 (converted)): 724 nM

O=C(O)c1ccc2c(c1)B(O)OC2
solubility [3]: 950 µg/mL (≈ 5.34 mM) | EC50 ([1]; read-out: pEC50 (converted)): 9330 nM

C[C@H](C(=O)O)c1ccc2c(c1)B(O)OC2
half-life [4]: 1.14 h | Cmax [5]: 1730 ng/mL | solubility [3]: 950 µg/mL (≈ 4.61 mM) | AUC/dose [20]: 683 kg·ng·h/mL/mg | EC50 ([1]; read-out: pEC50 (converted)): 871 nM | Cmax [21]: 47200 ng/mL | bioavailability [9]: 88% | half-life [22]: 4.53 h | bioavailability [23]: > 100% | AUC/dose [11]: 451 kg·ng·h/mL/mg

O=C(Nc1ccc2c(c1)B(O)OC2)c1cccn(Cc2ccccc2)c1=O
half-life [4]: 4.5 h | Cmax [5]: 1420 ng/mL | AUC/dose [24]: 4210 kg·ng·h/mL/mg | Cmax [25]: 792 ng/mL | Vdss [26]: 1.7 L/kg | half-life [27]: 6.4 h | bioavailability [9]: 27% | AUC/dose [11]: 1120 kg·ng·h/mL/mg

O=C(O)Cc1ccc2c(c1)B(O)OC2
solubility [3]: > 1000 µg/mL | EC50 ([1]; read-out: pEC50 (converted)): 1070 nM

OB1OCc2ccc(Cc3nnn[nH]3)cc21
half-life [4]: 3.67 h | Cmax [5]: 283 ng/mL | solubility [3]: > 1000 µg/mL | EC50 ([1]; read-out: pEC50 (converted)): 9.12 nM | bioavailability [9]: 24% | AUC/dose [11]: 103 kg·ng·h/mL/mg

CC(C)(C)OC(=O)NCc1ccc(S(=O)(=O)NC(=O)CCc2ccc3c(c2)B(O)OC3)cc1
EC50 [19]: 912 nM

O=C(O)c1ccn(-c2ccc3c(c2)B(O)OC3)c1
solubility [3]: 510 µg/mL (≈ 2.1 mM) | EC50 ([1]; read-out: pEC50 (converted)): 316 nM

O=C(O)CCc1ccc2c(c1)B(O)OC2
solubility [3]: > 1000 µg/mL | EC50 ([1]; read-out: pEC50 (converted)): 1120 nM

OB1OCc2ccc(OCc3nnn[nH]3)cc21
half-life [4]: 1.3 h | Cmax [5]: 71 ng/mL | solubility [3]: > 1000 µg/mL | AUC/dose [20]: 184 kg·ng·h/mL/mg | EC50 ([1]; read-out: pEC50 (converted)): 275 nM | Cmax [21]: 4900 ng/mL | bioavailability [9]: 13% | half-life [22]: 3.54 h | bioavailability [23]: 62% | AUC/dose [11]: 38 kg·ng·h/mL/mg

C[C@@H](C(=O)O)c1ccc2c(c1)B(O)OC2
AUC/dose [12]: 283 kg·ng·h/mL/mg | half-life [4]: 16.6 h | Cmax [5]: 1860 ng/mL | solubility [3]: > 1000 µg/mL | bioavailability [13]: 55% | Cmax [14]: 2710 ng/mL | EC50 ([1]; read-out: EC50): 40 nM | EC50 ([1]; read-out: pEC50 (converted)): 39.8 nM | half-life [15]: 3.03 h | bioavailability [9]: 83% | AUC/dose [11]: 429 kg·ng·h/mL/mg

COc1cc2c(cc1C(=O)NS(=O)(=O)c1ccccc1)B(O)OC2
EC50 [19]: > 31600 nM

O=C(NS(=O)(=O)c1ccc2c(c1)B(O)OC2)c1ccccc1
solubility [3]: 980 µg/mL (≈ 3.09 mM) | EC50 ([1]; read-out: pEC50 (converted)): 110 nM

O=C(Cc1ccc2c(c1)B(O)OC2)NS(=O)(=O)C1CC1
solubility [3]: 700 µg/mL (≈ 2.37 mM) | EC50 ([1]; read-out: pEC50 (converted)): 18.2 nM
